Source: EP2727916A1, “Neuroprotective multi-target directed drugs” (Universitat Autònoma de Barcelona, priority 2012, dated 2014)
“Also recorded” adds a separate entry of the source.

Experiments:
[1] = Metal binding assay, spectrophotometric detection of Cu(II) complex; assay type: physicochemical; details: 10 µM, Tris buffer pH7.4, Cu(SO4) 6.25 and 12.5 µM, few minutes after addition
Description: (§1) Lineweaver-Burk reciprocal plots of initial velocity and substrate concentrations (0.1-1 mM) are presented. […] Lineweaver-Burk reciprocal plots of initial velocity and substrate concentrations (0.1-1 mM) are presented. […] Lineweaver-Burk reciprocal plots of initial velocity and substrate concentrations (0.1-1 mM) are presented. […] Three consecutive centrifuges were performed with buffer. […] 5 µM). All solution were made using Tris buffer pH7.4. […] 5 µM). All solution were made using Tris buffer pH7.4. […] 5 µM). All solution were made using Tris buffer pH7.4. Spectra were obtained after a Short-time incubation
It is known that 8-quinolinol is a strong chelator for biometals such iron and copper. This is an important precondition for the antioxidative-type drugs because it is the excessive iron stores and iron-mediated generation of free radicals in the brain that are thought to be associated with neurodegenerative diseases. Therefore, only chelators with a higher selectivity for iron over copper are expected to chelate iron instead of copper and have potential neuroprotective effects. […] A spectrophotometric method is used for measurement of the copper/iron-complexes stability constants of the compounds.
The metal binding assay was performed by the spectrophotometric detection of the formation of Fe(III)- and Cu(II)-6 complex.

[2] = target: electrophorus electricus acetylcholinesterase (eeAChE) (Electrophorus electricus, UniProt O42275); test: biochemical; assay type: biochemical
ratMAO-A [3] = target: T1, ratMAO-A (Rattus norvegicus, UniProt P21396); test: Kinetic study of MAO-A inhibition (Lineweaver-Burk plots); assay type: biochemical; parameters: from tissue; host or cells: rat brain homogenate per the methods
T1 sequence (P21396 1-526): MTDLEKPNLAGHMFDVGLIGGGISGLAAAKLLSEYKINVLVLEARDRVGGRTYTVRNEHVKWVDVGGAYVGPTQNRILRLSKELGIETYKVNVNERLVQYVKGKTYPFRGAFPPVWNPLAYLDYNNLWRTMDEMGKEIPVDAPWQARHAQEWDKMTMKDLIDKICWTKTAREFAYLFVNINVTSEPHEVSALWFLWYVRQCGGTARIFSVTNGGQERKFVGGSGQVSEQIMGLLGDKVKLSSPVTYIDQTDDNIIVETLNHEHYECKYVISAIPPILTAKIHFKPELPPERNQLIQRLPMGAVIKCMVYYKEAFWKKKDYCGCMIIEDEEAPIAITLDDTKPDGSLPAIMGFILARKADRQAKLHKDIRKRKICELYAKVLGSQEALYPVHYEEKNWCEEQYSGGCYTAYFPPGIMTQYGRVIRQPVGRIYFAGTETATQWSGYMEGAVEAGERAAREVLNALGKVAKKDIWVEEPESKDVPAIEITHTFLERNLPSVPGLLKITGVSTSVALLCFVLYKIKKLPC
Description: as §1

[4] = target: equine serum butyrylcholinesterase (eqBuChE) (Equus caballus, UniProt P81908); test: biochemical; assay type: biochemical
MAO-A = target: T2, MAO-A (Rattus norvegicus, UniProt P21396); test: Reversibility study of MAO-A inhibition (centrifugation and washing); assay type: biochemical
T2 construct: from tissue; host or cells: rat brain homogenate per the methods
T2 sequence (P21396 1-526): T1 sequence (P21396 1-526)
Description: as §1

ratMAO-A [5] = target: T1, ratMAO-A; test: MAO-A inhibition, radiometric method of Fowler and Tipton (14C 5-HT); assay type: biochemical; parameters: MAO-A and MAO-B activities were determined in rat brain homogenate; from tissue; host or cells: rat brain homogenate per the methods
MAO-B = target: T3, MAO-B (Rattus norvegicus, UniProt P19643); test: Time-dependence of MAO-B inhibition (pre-incubation times); assay type: biochemical
T3 construct: from tissue; host or cells: rat brain homogenate per the methods
T3 sequence (P19643 1-520): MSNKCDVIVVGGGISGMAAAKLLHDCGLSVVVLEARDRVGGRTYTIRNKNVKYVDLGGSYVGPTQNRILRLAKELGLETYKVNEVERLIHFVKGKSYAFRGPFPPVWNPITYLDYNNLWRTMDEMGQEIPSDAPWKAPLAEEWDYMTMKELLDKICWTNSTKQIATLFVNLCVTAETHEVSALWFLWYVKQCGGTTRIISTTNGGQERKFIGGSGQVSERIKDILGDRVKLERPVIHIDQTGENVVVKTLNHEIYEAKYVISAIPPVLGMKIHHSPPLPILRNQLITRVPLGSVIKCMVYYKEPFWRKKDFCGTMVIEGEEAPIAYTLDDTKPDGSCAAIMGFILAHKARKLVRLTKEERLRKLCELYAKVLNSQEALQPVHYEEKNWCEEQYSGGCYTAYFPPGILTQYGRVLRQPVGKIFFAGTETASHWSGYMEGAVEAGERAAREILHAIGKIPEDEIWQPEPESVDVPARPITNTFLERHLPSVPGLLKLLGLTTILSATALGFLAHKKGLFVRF
Description: as §1
Independent inhibition assays were also performed at different pre-incubation periods for both two MAO isoforms (Figure 6). […]

[6] = 20 µM, pre-incubation times 0-360 min

equine serum butyrylcholinesterase (eqBuChE), sequence (P81908 whole entry): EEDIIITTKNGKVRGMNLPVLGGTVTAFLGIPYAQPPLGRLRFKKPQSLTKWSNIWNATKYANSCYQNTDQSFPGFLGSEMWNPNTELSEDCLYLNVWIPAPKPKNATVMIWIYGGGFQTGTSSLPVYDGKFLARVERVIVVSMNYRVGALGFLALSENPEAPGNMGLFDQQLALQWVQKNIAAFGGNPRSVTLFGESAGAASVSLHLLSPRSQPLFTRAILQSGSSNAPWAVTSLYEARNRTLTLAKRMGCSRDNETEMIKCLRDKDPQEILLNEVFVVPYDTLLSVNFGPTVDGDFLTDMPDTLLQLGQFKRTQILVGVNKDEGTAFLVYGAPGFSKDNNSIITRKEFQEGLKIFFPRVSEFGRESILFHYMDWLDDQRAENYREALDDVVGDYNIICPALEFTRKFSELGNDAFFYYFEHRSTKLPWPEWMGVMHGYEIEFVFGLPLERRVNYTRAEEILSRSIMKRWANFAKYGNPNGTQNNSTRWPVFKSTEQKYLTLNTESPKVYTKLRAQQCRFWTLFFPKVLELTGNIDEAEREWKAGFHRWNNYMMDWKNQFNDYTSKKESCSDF
electrophorus electricus acetylcholinesterase (eeAChE), sequence (O42275 24-633): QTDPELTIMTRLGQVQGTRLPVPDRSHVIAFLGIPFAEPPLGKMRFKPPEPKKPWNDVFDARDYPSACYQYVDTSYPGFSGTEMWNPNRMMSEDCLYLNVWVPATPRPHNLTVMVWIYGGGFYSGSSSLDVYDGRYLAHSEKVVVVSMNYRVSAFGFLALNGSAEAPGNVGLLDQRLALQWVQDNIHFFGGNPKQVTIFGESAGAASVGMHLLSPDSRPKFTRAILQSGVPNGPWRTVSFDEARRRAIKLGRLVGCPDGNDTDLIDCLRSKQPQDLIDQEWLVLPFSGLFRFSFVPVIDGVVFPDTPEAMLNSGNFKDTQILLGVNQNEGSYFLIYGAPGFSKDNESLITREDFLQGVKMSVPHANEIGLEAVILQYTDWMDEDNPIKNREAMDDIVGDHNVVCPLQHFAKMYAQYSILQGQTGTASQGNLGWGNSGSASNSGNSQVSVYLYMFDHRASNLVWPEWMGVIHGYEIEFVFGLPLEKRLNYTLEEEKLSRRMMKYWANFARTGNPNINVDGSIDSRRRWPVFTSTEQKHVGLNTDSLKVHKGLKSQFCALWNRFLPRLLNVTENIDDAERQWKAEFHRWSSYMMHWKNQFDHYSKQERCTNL

## C#CCN(Cc1ccc(O)c2ncccc12)C(C#N)CCC1CCN(Cc2ccccc2)CC1 (stereo not shown) [Compound 6, 4-(1-benzylpiperidin-4-yl)-2-(((8-hydroxyquinolin-5-yl)methyl)(prop-2-yny)amino)butanenitrile]
[1]
  formation of Cu(II)-6 complex, UV-vis spectrum change: The 240 nm-band completely dissapeared while a new one appeared at 275 nm
[2]
  IC50: 1770 ± 100 nM
[2]; compared with M-30
  fold more active than M-30 for the inhibition of AChE: 64 fold
ratMAO-A [3]; Lineweaver-Burk reciprocal plots
  type of MAO-A inhibition mechanism: non-competitive inhibition
ratMAO-A [3]; estimated from the slopes of double reciprocal plots
  Ki: 8.41 ± 1.32 µM
[4]
  fold more active than donepezil 1 for eqBuChE inhibition: 4.5 fold
[4]; 20 minutes incubation at 37°C, mean ± standard error of the mean, read-out: IC50 eqBuChE
  IC50: 1630 ± 250 nM
[4]; ratio of IC50 values
  BuChE/ AChE: 0.92
MAO-A; 30 min inhibition (6 at 10 µM, clorgyline 50 nM), three consecutive centrifugations and washings with buffer
  reversibility of MAO-A inhibition: reversibly inhibited
MAO-A; inhibited at 10 µM for 30 min, three consecutive centrifuges with buffer, mean ± SEM
  MAO-A activity recovering: 56.5 ± 9.3%
ratMAO-A [5]
  IC50: 6.16 ± 0.7 µM
  fold less active than M-30 for the inhibition of MAO-A: 166 fold
  fold more active than donepezil 1 for MAO-A: 138 fold
MAO-B; [6]
  pre-incubation period to complete MAO-B activity inhibition: ≥ 180 min
  time-dependence of MAO-B inhibition: irreversible behaviour; also recorded: time-dependent
MAO-B; pre-incubation time 0 min
  IC50: 61.7 µM
MAO-B; pre-incubation time 30 min
  IC50: 9.3 µM
MAO-B; pre-incubation time 60 min
  IC50: 3.3 µM
MAO-B; pre-incubation time 240 min
  IC50: 1.2 µM
